Columns and labels:
Liver cells [1] = assay: Incorporation of labeled choline into phosphatidylcholine (PC biosynthesis) by liver cells with iron; format: cell-based; conditions: SEM
Description: The study of effects oil liver cells was also considered based on evaluation of effect on increase in the incorporation of labeled choline into phosphatidylcholine (phosphatidylcholine biosynthesis) by liver cells. Vitamin E phosphate/phosphatidylcholine produced greater beneficial effects than either vitamin E phosphate or phosphatidylcholine.

[2] = test system: isolated liver cells (1000×g cell fraction); assay: Iron-dependent liver cell lipid peroxidation (LCLP); format: cell-based; conditions: SEM
male albino mice = assay: Allyl alcohol-induced liver injury in male albino mice (SGPT); format: in vivo; conditions: allyl alcohol alone, single intraperitoneal dose 50 mg/kg, 4 hours; ± SEM
Procedure: Influence of vitamin E phosphate/phosphatidylcholine liposomes (see example 1) on Allyl alcohol-induced liver injury was evaluated in male albino mice.

cultured liver cells = assay: Reversal of ethanol damage in cultured liver cells (phosphatidylcholine biosynthesis); format: cell-based; conditions: 96 h, ± SEM
Procedure: The use of vitamin E phosphate/phosphatidylcholine to effect reversal of damage from ethanol on liver cells was then studied. The cultured liver cells were incubated with 25 mM or 50 mM ethanol for 96 hours, at which time there is significant reduction in liver cell function (phosphatidylcholine biosynthesis). The effect of adding vitamin E phosphate/phosphatidylcholine after 72 hours was studied, and 24 hours later (96 hours after initial exposure to ethanol) values were obtained.

Liver cells [3] = assay: Phosphatidylcholine formation in liver cells dysfunctional due to ethanol exposure; format: cell-based
Procedure: Liver cells which had become dysfunctional due to exposure to ethanol were incubated 24 hours with vitamin E phosphate/phosphatidylcholine liposomes. The pmoles of phosphatidylcholine formed per minute/mg protein was then measured with the following results: […]

[4] = 1 mM iron plus addition: PC 100 μM, VEP 50 μm, or combination VEP/PC

[Fe] [iron]
PC biosynthesis (Liver cells [1]; 1 mM iron alone): 254 ± 9 % control
LCLP (liver cell lipid peroxidation) ([2]; 1 mM iron alone): 357 ± 12 % control

phosphatidylcholine [PC]
PC biosynthesis (Liver cells [1]; [4]): 167 ± 4 % control
LCLP (liver cell lipid peroxidation) [2, 4]: 281 ± 4 % control

C=CCO [Allyl alcohol]
SGPT (male albino mice): 330 ± 15 % of control

Cc1c(C)c2c(c(C)c1OP(=O)(O)O)CCC(C)(CCCC(C)CCCC(C)CCCC(C)C)O2 (centres unmarked) [VEP, vitamin E phosphate]
PC biosynthesis (Liver cells [1]; [4]): 145 ± 4 % control
LCLP (liver cell lipid peroxidation) [2, 4]: 167 ± 3 % control

CCO [ethanol]
liver cell function (phosphatidylcholine biosynthesis) (cultured liver cells; 25 mM ethanol alone): 38 ± 2 % control
liver cell function (phosphatidylcholine biosynthesis) (cultured liver cells; 50 mM ethanol alone): 22 ± 1 % control
phosphatidylcholine formed (Liver cells [3]; cells exposed to ethanol (control 75)): 25 pmoles per minute/mg protein
phosphatidylcholine formed (Liver cells [3]; cells exposed to ethanol, then incubated 24 hours in water): 27 pmoles per minute/mg protein
